In US8785682B2, “Tetranor PGDM: a biomarker of PGD2 synthesis in vivo” (The Trustees of the University of Pennsylvania, priority 2007, dated 2014):
Where two headings read alike, the source gives them in different places.

Tests used:
[1] = Infusion of exogenous PGD2 i.p. into mice, urinary PGD2 metabolites; type: in vivo, mouse
Method: (§1) Urine analysis: ^18O2-2,3-dinor-11β-PGF2α, and ^18O^2-11β-PGF2α were added to 1 milliliter (ml) of human urine or […] of mouse urine and were allowed to equilibrate for 15 minutes. […] The resulting residue was then reconstituted with 100 μl of 5% acetonitrile in water and was filtered by centrifugation.
(§2) The ESI source used nitrogen for both sheath and auxiliary gas and was set at 70 and 5 (arbitrary units), respectively. The mass spectrometer was operated in the negative ion mode with a capillary temperature of 350° C. and a spray voltage of 2.0 kV. […] The transitions for endogenous 2,3-dinor-11β-PGF2α and ^18O2-2,3-dinor-11β-PGF2α, were m/z 325→145 and m/z 329→145 with CE 13 eV, respectively. They were m/z […] and m/z 357→197 for 9α,11β-PGF2α and ^18O2-9α,11β-PGF2α with CE 24 eV.
Studies in mice: All studies were performed following protocol review and approval by the Institutional Animal Care and Use Committee (IAUCC) of the University of Pennsylvania. (i) Infusion studies: vehicle or PGD2 [20, 150 or 500 μg] was infused i.p. into twelve-week-old male C57/BL6 mice (n=5 per group). Urine was collected for 24 hours in metabolic cages for analysis of PGD2 metabolites. (ii) PGDS knockouts: Urine was collected for 24 hours from three- to four-month-old male wild type mice, L-PGDS knockout mice (kindly provided by Dr. Yoshihiro Urade, Osaka, Japan) and H-PGDS knockout mice (kindly provided by Dr. Yoshihide Kanaoka, Boston, Mass.), all on a C57/BL6 background (n=15 for WT and LPGDS knockouts and n=10 for H-PGDS knockouts).
(§3) Results are expressed as mean+/−SEM.

PGD2 levels = assay: Urinary tetranor PGDM in patients undergoing PTCA; type: in vivo, human; conditions: for Level of tetranor-PGDM, Post-PTCA, no aspirin / Level of tetranor-PGDM, Pre-PTCA, no aspirin / Level of tetranor-PGDM, During-PTCA, no aspirin: patient (n=1) on clopidogrel and no aspirin
From the text: PGD2 levels were studied in patients undergoing percutaneous transluminal coronary angioplasty (PTCA). PTCA is a common non-surgical treatment for opening obstructed coronary arteries. During PTCA, a balloon-tipped catheter is threaded from an artery in the groin to the trouble spot in the artery of the heart. The balloon is then inflated, thereby compressing the plaque and opening (dilating) the narrowed coronary artery so that blood flow is improved. In some instances, an expandable metal stent is also inserted; stents are wire mesh tubes used to counteract further constriction. The inclusion and exclusion criteria for participation in the PGD2 level assessment were as follows. Inclusion: • a. Males and females between the ages of 18-99. • b. […] Treated with any dose of aspirin (acetylsalicylic acid; ASA) daily for at least 5 days OR • 2. […] Treated with an alternative antiplatelet therapy, such as clopidogrel, due to an aspirin hypersensitivity or PMDs preference OR • 4. […] No aspirin therapy at all. • c. Patients presenting to the emergency room (ER) with Acute Coronary Syndrome (ACS) who will have a PTCA. • d. Patients with stable angina or positive stress tests scheduled for a cardiac catheterization. Exclusion: • a. History of unstable diabetes (Hgb A1c>8 or FBS>200). • b. Uncontrolled hypertension (SBP>180, DBP>100). • c. History of an acute confounding disease as judged on clinical screen that according to the investigator may interfere with interpretation of the study results, or compromise the safety of a potential subject. • d. […] Nineteen (19) subjects scheduled for elective PTCA and/or who presented to the emergency room with acute coronary syndrome and subsequently ordered a PTCA were screened according to the inclusion and exclusion criteria. […] Urine was collected from each subject at three times. […] Urine samples were kept at −80° C. The tetranor PDGM level in each sample was then determined by stable isotope dilution, tandem mass spectrometric quantification, following thawing of the sample. The tetranor PGDM level was normalized to the quantity in milligrams (mg) of urine creatinine.

biosynthesis of PGD2 [2] = assay: Aspirin single dose in healthy volunteers, urinary PGD2 metabolites; type: in vivo, human; conditions: mean±SEM
Method: as §1, §2
(§4) Clinical Studies: Four clinical studies were performed.
In a fourth study, a single dose of aspirin (325 mg) was administered to healthy volunteers (n=18; 9 males and 9 females). Urinary PGD2 metabolites were assessed at time 0 in spot urines and 0-4 hours in urine collected from 0-4 hrs after dosing.
as §3

biosynthesis of PGD2 [3] = system: biosynthesis of PGD2
Method: (§5) In a second study, niacin (dose was 400 mg or 600 mg) was administered to two healthy male volunteers. Urinary PGD2 metabolites were assessed in spot urines collected at the following time points before (time 0) and after (1, 2, 3, 4, 5, 6 hours) niacin administration.

[4] = Method: as §5
biosynthesis of PGD2 [5] = assay: Rofecoxib single dose in healthy volunteers, urinary PGD2 metabolites; type: in vivo, human; conditions: rofecoxib 25 mg single dose, 0 vs 4 hours
Method: as §1, §2, §4
In a third study, 18 healthy volunteers (9 male and 9 female) received, in random order, a single dose of placebo or rofecoxib (25 mg) under double-blind conditions, separated by washout periods of at least 2 weeks. Urinary PGD2 metabolites were assessed at 0 and 4 hours in spot urine samples that were collected 30 minutes after voiding.
as §3

[6] = mice, 20, 150 or 500 μg PGD2 i.p.
[7] = mice, maximal dose 500 ug PGD2 i.p., 24 h urine, mean±SEM
[8] = time 0, before aspirin 325 mg single dose
[9] = niacin 400 mg or 600 mg, spot urines 0-6 hours

CCCCC[C@H](O)/C=C/[C@H]1C(=O)C[C@H](O)[C@@H]1C/C=C\CCCC(=O)O [PGD2, prostaglandin D2]
fractional conversion of PGD2 to each metabolite [1, 6]: uninfluenced by dose
response of all 3 urinary metabolites to PGD2 infusion [1, 6]: increased dose dependently
infused PGD2 excreted as the tetranor PGDM metabolite in mouse urine ([1]; mice, i.p. infusion): 3-10%
urinary 2,3-dinor-11β-PGF2α level attained after PGD2 infusion [1, 7]: 809±346 ng/mg creatinine
urinary 11β-PGF2α level attained after PGD2 infusion [1, 7]: 207±67 ng/mg creatinine
urinary tetranor PGDM level attained after PGD2 infusion [1, 7]: 2498±792 ng/mg creatinine

CC(=O)Oc1ccccc1C(=O)O [aspirin, acetylsalicylic acid]
Level of tetranor-PGDM, Post-PTCA, 81 mg aspirin (PGD2 levels; patients (n=3) on daily 81 mg aspirin, urine after procedure): 3.1 ng/mg creatinine
Level of tetranor-PGDM, Pre-PTCA, 81 mg aspirin (PGD2 levels; patients (n=3) on daily 81 mg aspirin, urine before procedure): 2.6 ng/mg creatinine
Level of tetranor-PGDM, During-PTCA, 81 mg aspirin (PGD2 levels; patients (n=3) on daily 81 mg aspirin, urine during procedure): 1.8 ng/mg creatinine
Level of tetranor-PGDM, Post-PTCA, 325 mg aspirin (PGD2 levels; patients on daily 325 mg aspirin, urine after procedure): 3.1 ng/mg creatinine
Level of tetranor-PGDM, Pre-PTCA, 325 mg aspirin (PGD2 levels; patients on daily 325 mg aspirin, urine before procedure): 2.9 ng/mg creatinine
Level of tetranor-PGDM, During-PTCA, 325 mg aspirin (PGD2 levels; patients on daily 325 mg aspirin, urine during procedure): 2.8 ng/mg creatinine
urinary tetranor PGDM level following aspirin (biosynthesis of PGD2 [2]; 0-4 hrs after aspirin 325 mg single dose, p<0.001): 0.86±0.07 ng/mg creatinine
urinary 2,3-dinor-11β-PGF2α level following aspirin (biosynthesis of PGD2 [2]; 0-4 hrs after aspirin 325 mg single dose, p<0.01): 0.32±0.04 ng/mg creatinine
urinary 2,3-dinor-11β-PGF2α level before aspirin (biosynthesis of PGD2 [2]; [8]): 0.63±0.11 ng/mg creatinine
urinary tetranor PGDM level before aspirin (biosynthesis of PGD2 [2]; [8]): 1.71±0.21 ng/mg creatinine

COC(=O)[C@H](c1ccccc1Cl)N1CCc2sccc2C1 [clopidogrel]
Level of tetranor-PGDM, Post-PTCA, no aspirin (PGD2 levels; urine after procedure): 13.1 ng/mg creatinine
Level of tetranor-PGDM, Pre-PTCA, no aspirin (PGD2 levels; urine before procedure): 11.5 ng/mg creatinine
Level of tetranor-PGDM, During-PTCA, no aspirin (PGD2 levels; urine during procedure): 26.3 ng/mg creatinine

O=C(O)c1cccnc1 [niacin]
relationship between metabolite excretion and the doses of niacin (biosynthesis of PGD2 [3]; 400 mg vs 600 mg): not apparent
time of fall of urinary metabolites to basal levels after dosing (biosynthesis of PGD2 [3]; niacin 400 mg or 600 mg): 5 to 6 h
time of peak of urinary tetranor PGDM and 2,3-dinor-11β-PGF2α after dosing (biosynthesis of PGD2 [3]; niacin 400 mg or 600 mg): 2 to 3 h
effect on urinary 2,3-dinor-11β-PGF2α (biosynthesis of PGD2 [3]; [9]): elevated
effect on urinary tetranor PGDM (biosynthesis of PGD2 [3]; [9]): elevated
time after which flushing had dissipated ([4]; niacin 400 mg or 600 mg oral): 2 to 3 h
flushing after oral administration ([4]; niacin 400 mg or 600 mg, two volunteers, face and upper part of the body): intense flush

CS(=O)(=O)c1ccc(C2=C(c3ccccc3)C(=O)OC2)cc1 [rofecoxib]
effect on urinary 2,3-dinor-11β-PGF2α (biosynthesis of PGD2 [5]): failed to depress
effect on urinary tetranor PGDM (biosynthesis of PGD2 [5]): failed to depress

O=C(O)CCCCC(=O)CC[C@H]1C(=O)C[C@H](O)[C@@H]1CCC(=O)O [tetranor PGDM, 11,15-dioxo-9α-hydroxy-2,3,4,5-tetranor-prostan-1,20-dioic acid]
Level of tetranor-PGDM, Post-PTCA, no aspirin (PGD2 levels; urine after procedure): 13.1 ng/mg creatinine
Level of tetranor-PGDM, Pre-PTCA, no aspirin (PGD2 levels; urine before procedure): 11.5 ng/mg creatinine
Level of tetranor-PGDM, During-PTCA, no aspirin (PGD2 levels; urine during procedure): 26.3 ng/mg creatinine
